Experimental data as given in ChEMBL document CHEMBL1201862, “PubChem BioAssay data set” (2004).
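Method: 48-hour compound exposure of cells in 96-well plates, five concentrations, linear interpolation of endpoints. GI50 is the concentration that inhibits growth by half.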 Active and inactive are the calls of the source. Cut-off read from the data, not from the text of the source: active = GI50 up to about 1.1 µM and inactive = higher.

Assays:
Assay in all cases: DTP human tumour cell line panel, 48 h
SNB-19 = tested on: SNB-19
CCRF-CEM = tested on: CCRF-CEM
UACC-62 = tested on: UACC-62
Hs-578T = tested on: Hs-578T
M14 = tested on: M14
HCT-15 = tested on: HCT-15
HCT-116 = tested on: HCT-116
NCI-H460 = tested on: NCI-H460
HL-60 = tested on: HL-60
MCF7 = tested on: MCF7
MOLT-4 = tested on: MOLT-4
LOX IMVI = tested on: LOX IMVI
MDA-MB-435 = tested on: MDA-MB-435
BT-549 = tested on: BT-549
SF-295 = tested on: SF-295
MDA-MB-231 = tested on: MDA-MB-231

Measured: GI50

CN(C)C(=S)C(Cl)(c1ccccc1)c1ccccc1
inactive: SNB-19 > 100 µM | CCRF-CEM 27.1 µM | UACC-62 > 100 µM | Hs-578T > 100 µM | M14 > 100 µM | HCT-116 38.4 µM | NCI-H460 > 100 µM | HL-60 22.9 µM | MCF7 28.6 µM | MOLT-4 11.8 µM | LOX IMVI 34.5 µM | MDA-MB-435 37.1 µM | BT-549 > 100 µM | SF-295 > 100 µM | MDA-MB-231 59.7 µM
63 µM: HCT-15

O=C(Nc1sccc1S(=O)(=O)c1ccccc1)c1cccnc1
5.18 µM: HCT-15
active: HL-60 0.614 µM
inactive: SNB-19 > 44.5 µM | CCRF-CEM 7.03 µM | UACC-62 14 µM | Hs-578T > 46.7 µM | M14 6.08 µM | HCT-116 6.59 µM | NCI-H460 8.34 µM | MCF7 8.07 µM | MOLT-4 5.35 µM | LOX IMVI 75.3 µM | MDA-MB-435 1.83 µM | BT-549 > 37.1 µM | SF-295 8.63 µM | MDA-MB-231 > 69.5 µM

O/N=N/c1ccccn1.OCC1OC2OC3C(CO)OC(OC4C(CO)OC(OC5C(CO)OC(OC6C(CO)OC(OC7C(CO)OC(OC1C(O)C2O)C(O)C7O)C(O)C6O)C(O)C5O)C(O)C4O)C(O)C3O (stereo not drawn)
inactive: SNB-19 63.7 µM | CCRF-CEM 67.5 µM | UACC-62 47.9 µM | Hs-578T > 100 µM | M14 30.8 µM | HCT-116 41.6 µM | NCI-H460 68.7 µM | HL-60 28.1 µM | MCF7 > 100 µM | MOLT-4 > 100 µM | LOX IMVI 57.3 µM | MDA-MB-435 19.2 µM | BT-549 30.8 µM | SF-295 > 100 µM | MDA-MB-231 > 100 µM
> 100 µM: HCT-15

C[C@@]12C[C@@H](c3ccccc3O1)N1CCCCSC1=N2
> 100 µM: HCT-15
inactive: SNB-19 > 100 µM | CCRF-CEM > 100 µM | UACC-62 > 100 µM | Hs-578T > 100 µM | M14 > 100 µM | HCT-116 > 100 µM | NCI-H460 > 100 µM | HL-60 3.46 µM | MCF7 > 100 µM | MOLT-4 > 100 µM | LOX IMVI > 100 µM | MDA-MB-435 > 100 µM | BT-549 > 100 µM | SF-295 > 100 µM | MDA-MB-231 > 100 µM

Cc1cc(Oc2cnc(=O)[nH]c2)cs1
inactive: SNB-19 > 100 µM | CCRF-CEM > 100 µM | UACC-62 > 100 µM | Hs-578T > 100 µM | M14 > 100 µM | HCT-116 > 100 µM | NCI-H460 > 100 µM | HL-60 > 100 µM | MCF7 > 100 µM | MOLT-4 > 100 µM | LOX IMVI > 100 µM | MDA-MB-435 > 100 µM | BT-549 > 100 µM | SF-295 > 100 µM | MDA-MB-231 > 100 µM
> 100 µM: HCT-15

CCOC(=O)C(SCCO)C(C(=O)OCC)n1ccc(N)nc1=O (stereo not drawn)
inactive: SNB-19 > 100 µM | CCRF-CEM > 100 µM | UACC-62 > 100 µM | Hs-578T > 100 µM | M14 > 100 µM | HCT-116 > 100 µM | NCI-H460 > 100 µM | HL-60 > 100 µM | MCF7 > 100 µM | MOLT-4 > 100 µM | LOX IMVI > 100 µM | MDA-MB-435 > 100 µM | BT-549 > 100 µM | SF-295 > 100 µM | MDA-MB-231 > 100 µM
> 100 µM: HCT-15

N#Cc1nc(-c2ccco2)oc1N
> 10 µM: HCT-15
inactive: SNB-19 > 10 µM | CCRF-CEM > 10 µM | UACC-62 > 10 µM | Hs-578T > 10 µM | M14 > 10 µM | HCT-116 > 10 µM | NCI-H460 > 10 µM | HL-60 > 10 µM | MCF7 > 10 µM | MOLT-4 > 10 µM | LOX IMVI > 10 µM | MDA-MB-435 > 10 µM | BT-549 > 10 µM | SF-295 > 10 µM | MDA-MB-231 > 10 µM

CCN(CC)c1ncnc2c1ncn2CCNC(CO)(CO)CO
> 100 µM: HCT-15
inactive: SNB-19 > 100 µM | CCRF-CEM > 100 µM | UACC-62 > 100 µM | Hs-578T > 100 µM | M14 > 100 µM | HCT-116 > 100 µM | NCI-H460 > 100 µM | HL-60 > 100 µM | MCF7 > 100 µM | MOLT-4 > 100 µM | LOX IMVI > 100 µM | MDA-MB-435 > 100 µM | BT-549 > 100 µM | SF-295 > 100 µM | MDA-MB-231 > 100 µM
